In PubChem BioAssay (NCI):
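Five concentrations, 48 hours, 96-well plates. GI50 = concentration required for 50% inhibition of growth. The concentration for full growth arrest is given as TGI.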

Experiments:
Assay in all cases: NCI tumour cell line growth inhibition, 48 h
SF-295 CNS = test system: SF-295 CNS
M14 melanoma = test system: M14 melanoma
CCRF-CEM leukemia = test system: CCRF-CEM leukemia
KM12 colon = test system: KM12 colon
NCI-H522 lung = test system: NCI-H522 lung
UO-31 renal = test system: UO-31 renal
OVCAR-5 ovarian = test system: OVCAR-5 ovarian
MOLT-4 leukemia = test system: MOLT-4 leukemia
A498 renal = test system: A498 renal
HL-60(TB) leukemia = test system: HL-60(TB) leukemia
SK-MEL-2 melanoma = test system: SK-MEL-2 melanoma
NCI-H460 lung = test system: NCI-H460 lung
786-0 renal = test system: 786-0 renal
UACC-62 melanoma = test system: UACC-62 melanoma
MCF7 breast = test system: MCF7 breast
UACC-257 melanoma = test system: UACC-257 melanoma
EKVX NSCLC = test system: EKVX NSCLC
A549 NSCLC = test system: A549 NSCLC
BT-549 breast = test system: BT-549 breast
OVCAR-8 ovarian = test system: OVCAR-8 ovarian
NCI-H23 lung = test system: NCI-H23 lung
SK-MEL-5 melanoma = test system: SK-MEL-5 melanoma
OVCAR-3 ovarian = test system: OVCAR-3 ovarian
MDA-MB-231 breast = test system: MDA-MB-231 breast
CAKI-1 renal = test system: CAKI-1 renal
HCT-15 colon = test system: HCT-15 colon
SW-620 colon = test system: SW-620 colon
K-562 leukemia = test system: K-562 leukemia
RPMI-8226 leukemia = test system: RPMI-8226 leukemia
IGROV1 ovarian = test system: IGROV1 ovarian
RXF 393 renal = test system: RXF 393 renal
HOP-92 NSCLC = test system: HOP-92 NSCLC
HCC-2998 colon = test system: HCC-2998 colon
LOX IMVI melanoma = test system: LOX IMVI melanoma
HS 578T breast = test system: HS 578T breast
NCI/ADR-RES ovarian = test system: NCI/ADR-RES ovarian
NCI-H226 lung = test system: NCI-H226 lung
MDA-MB-435 = test system: MDA-MB-435
SR leukemia = test system: SR leukemia
PC-3 prostate = test system: PC-3 prostate
SF-268 CNS = test system: SF-268 CNS
ACHN renal = test system: ACHN renal
SN12C renal = test system: SN12C renal
DU-145 prostate = test system: DU-145 prostate
SF-539 CNS = test system: SF-539 CNS

C(#Cc1cnccn1)/C=C\C#Cc1cnccn1
GI50 (SF-295 CNS): 15 µM
TGI (SF-295 CNS): 32.1 µM
GI50 (M14 melanoma): 1.72 µM
TGI (M14 melanoma): 3.86 µM
GI50 (CCRF-CEM leukemia): 2.67 µM
TGI (CCRF-CEM leukemia): > 100 µM
GI50 (KM12 colon): 3.43 µM
TGI (KM12 colon): 22.4 µM
GI50 (NCI-H522 lung): 2.4 µM
TGI (NCI-H522 lung): 18.1 µM
GI50 (UO-31 renal): 36 µM
TGI (UO-31 renal): > 100 µM
GI50 (OVCAR-5 ovarian): 16.4 µM
TGI (OVCAR-5 ovarian): 31.7 µM
GI50 (MOLT-4 leukemia): 11.4 µM
TGI (MOLT-4 leukemia): > 100 µM
GI50 (A498 renal): 27.8 µM
TGI (A498 renal): 50.7 µM
GI50 (HL-60(TB) leukemia): 24.1 µM
TGI (HL-60(TB) leukemia): > 100 µM
GI50 (SK-MEL-2 melanoma): 41.8 µM
TGI (SK-MEL-2 melanoma): > 100 µM
GI50 (NCI-H460 lung): 19.4 µM
TGI (NCI-H460 lung): > 100 µM
GI50 (786-0 renal): 10.7 µM
TGI (786-0 renal): 29 µM
GI50 (UACC-62 melanoma): 10.4 µM
TGI (UACC-62 melanoma): 22.3 µM
GI50 (MCF7 breast): 14.1 µM
TGI (MCF7 breast): > 100 µM
GI50 (UACC-257 melanoma): 7.43 µM
TGI (UACC-257 melanoma): 27.1 µM
GI50 (EKVX NSCLC): 3.69 µM
TGI (EKVX NSCLC): 16 µM
GI50 (A549 NSCLC): 15.6 µM
TGI (A549 NSCLC): 42.2 µM
GI50 (BT-549 breast): 12 µM
TGI (BT-549 breast): 37.4 µM
GI50 (OVCAR-8 ovarian): 12.5 µM
TGI (OVCAR-8 ovarian): > 100 µM
GI50 (NCI-H23 lung): 1.65 µM
TGI (NCI-H23 lung): 3.79 µM
GI50 (SK-MEL-5 melanoma): 19.8 µM
TGI (SK-MEL-5 melanoma): 39.9 µM
GI50 (OVCAR-3 ovarian): 7.14 µM
TGI (OVCAR-3 ovarian): 28.4 µM
GI50 (MDA-MB-231 breast): 4.4 µM
TGI (MDA-MB-231 breast): 20.7 µM
GI50 (CAKI-1 renal): 2.14 µM
TGI (CAKI-1 renal): 6.92 µM
GI50 (HCT-15 colon): 2.74 µM
TGI (HCT-15 colon): 10.6 µM
GI50 (SW-620 colon): 2.87 µM
TGI (SW-620 colon): 6.88 µM
GI50 (K-562 leukemia): 4.18 µM
TGI (K-562 leukemia): > 100 µM
GI50 (RPMI-8226 leukemia): 8.49 µM
TGI (RPMI-8226 leukemia): 43.8 µM
GI50 (IGROV1 ovarian): 33.1 µM
TGI (IGROV1 ovarian): > 100 µM
GI50 (RXF 393 renal): 13 µM
TGI (RXF 393 renal): 38.6 µM
GI50 (HOP-92 NSCLC): 31.1 µM
TGI (HOP-92 NSCLC): 83.9 µM
GI50 (HCC-2998 colon): 3.63 µM
TGI (HCC-2998 colon): 11.5 µM
GI50 (LOX IMVI melanoma): 1.65 µM
TGI (LOX IMVI melanoma): 10.5 µM
GI50 (HS 578T breast): 31.6 µM
TGI (HS 578T breast): > 100 µM
GI50 (NCI/ADR-RES ovarian): 7.46 µM
TGI (NCI/ADR-RES ovarian): 44.3 µM
GI50 (NCI-H226 lung): 23.3 µM
TGI (NCI-H226 lung): 68.1 µM
GI50 (MDA-MB-435): 7.72 µM
TGI (MDA-MB-435): 33.1 µM
GI50 (SR leukemia): 3.54 µM
TGI (SR leukemia): > 100 µM
GI50 (PC-3 prostate): 29.7 µM
TGI (PC-3 prostate): 97.3 µM
GI50 (SF-268 CNS): 22.8 µM
TGI (SF-268 CNS): > 100 µM
GI50 (ACHN renal): 16 µM
TGI (ACHN renal): 40 µM
GI50 (SN12C renal): 13.6 µM
TGI (SN12C renal): 29.9 µM
GI50 (DU-145 prostate): 19.2 µM
TGI (DU-145 prostate): 72 µM
GI50 (SF-539 CNS): 15.4 µM
TGI (SF-539 CNS): 46.1 µM
